Assay [1] deals with Inhibitor of nuclear factor kappa-B kinase subunit beta (Homo sapiens) (UniProt O14920). Put plainly: Inhibition of full length human IKKbeta assessed as residual activity at 10 uM using peptide as substrate after 40 mins by [gamma-33ATP] radiometric assay relative to control.
Assay [2] has as its target Activin receptor type-1-like (Homo sapiens) (UniProt P37023). The experiment in a line: Inhibition of recombinant human ALK1 (142 to end residues) assessed as residual activity at 10 uM using casein as substrate incubated for 40 mins in presence of [gamma-33ATP] by scintillation counting based radiometry assay relative to control.
Assay [3] deals with Dual specificity mitogen-activated protein kinase kinase 3 (Homo sapiens) (UniProt P46734). The experiment in a line: Inhibition of recombinant human MKK3 assessed as residual activity at 10 uM by scintillation counting based radiometry assay relative to control.
The target of assay [4] is Macrophage colony-stimulating factor 1 receptor (Homo sapiens) (UniProt P07333). Put plainly: Inhibition of recombinant human FMS (538 to end residues) assessed as residual activity at 10 uM using KKKSPGEYVNIEF as substrate at 40 mins in presence of [gamma-33ATP] by scintillation counting based radiometry assay relative to control.
The target of assay [5] is CDC7/Cyclin B1 (Homo sapiens) (UniProt P14635+O00311). The experiment in a line: Inhibition of recombinant full length human CD7/CyclinB1 assessed as residual activity at 10 uM using Histone H1 as substrate incubated for 40 mins in presence of [gamma-33ATP] by scintillation counting based radiometry assay relative to control. It is filed as protein-complex assay.
In assay [6] the test system is Angiopoietin-1 receptor (Homo sapiens), Q02763 [Q939H,Q940H]. The experiment in a line: Inhibition of recombinant human TIE2 Q939H/Q940H mutant (771 to end residues) assessed as residual activity at 10 uM using EFPIYDFLPAKKK as substrate incubated for 40 mins in presence of [gamma33P]ATP by scintillation counting based radiometry assay relative to control.
The subject of assay [7] is PI3-kinase p110-alpha/p85-alpha (Homo sapiens), P27986+P42336 [E542K]. Put plainly: Inhibition of recombinant full-length human PI3K p110/p85 E542K mutant assessed as residual activity at 10 uM using phosphatidylinositol-4, 5-bisphosphate as substrate incubated for 40 mins in presence of [gamma33P]ATP by scintillation counting based radiometry assay relative to control.

Assay [8] concerns the target Serine/threonine-protein kinase MRCK gamma (Homo sapiens) (UniProt Q6DT37). Put plainly: Inhibition of recombinant human MRCKgamma assessed as residual activity at 10 uM using KKRNRTLTV as substrate incubated for 40 mins in presence of [gamma-33ATP by scintillation counting based radiometry assay relative to control.
In assay [9] the target is Serine/threonine-protein kinase B-raf (Homo sapiens) (UniProt P15056). Put plainly: Inhibition of recombinant full length human B-Raf (416 to end residues) assessed as residual activity at 10 uM using myelin basic protein substrate incubated for 40 mins in presence of [gamma-33ATP] by scintillation counting based radiometry assay relative to control.
Assay [10] relates to Macrophage colony-stimulating factor 1 receptor (Homo sapiens), P07333 [Y969C]. The experiment in a line: Inhibition of recombinant human FMS Y969C mutant (538 to end residues) assessed as residual activity at 10 uM using EEEEYEEEEEEYYIIEEEEEEYEEEEEEYYEEEEEEKKKK as substrate at 40 mins in presence of [gamma-33ATP] by scintillation counting based radiometry assay relative to control.

Assay [11] deals with Activin receptor type-2A (Homo sapiens) (UniProt P27037). The experiment in a line: Inhibition of human ACTR2 (162 to end residues) assessed as residual activity at 10 uM using casein as substrate incubated for 120 mins in presence of [gamma-33ATP] by scintillation counting based radiometry assay relative to control.
Assay [12] deals with SRSF protein kinase 3 (Homo sapiens) (UniProt Q9UPE1). Put plainly: Inhibition of recombinant full-length human MSSK1 assessed as residual activity at 10 uM using ERMRPRKRQGSVRRRV as substrate measured after 40 mins in presence of [gamma33P]ATP by scintillation counting based radiometry assay relative to control.
The target in assay [13] is Casein kinase I isoform gamma-1 (Homo sapiens) (UniProt Q9HCP0). Put plainly: Inhibition of recombinant human CK1gamma1 assessed as residual activity at 10 uM using KRRRALS(p)VASLPGL as substrate incubated for 40 mins in presence of [gamma-33ATP] by scintillation counting based radiometry assay relative to control.
Assay [14] deals with Serine/threonine-protein kinase 10 (Homo sapiens) (UniProt O94804). Put plainly: Inhibition of recombinant human LOK (1 to 348 residues) assessed as residual activity at 10 uM using RLGRDKYKTLRQI as substrate after 40 mins in presence of [gamma-33ATP] by scintillation counting based radiometry assay relative to control.
The target of assay [15] is Mitogen-activated protein kinase kinase kinase kinase 4 (Homo sapiens) (UniProt O95819). The experiment in a line: Inhibition of recombinant human MAP4K4 (1 to 328 residues) assessed as residual activity at 10 uM using RLGRDKYKTLRQI as substrate incubated for 40 mins in presence of [gamma-33ATP by scintillation counting based radiometry assay relative to control.
Assay [16] addresses Phosphatidylinositol 4-phosphate 5-kinase type-1 alpha (Homo sapiens) (UniProt Q99755). Put plainly: Inhibition of recombinant full-length human PIP5K1alpha assessed as residual activity at 10 uM using phosphatidylinositol 5-phosphate as substrate by HTRF assay relative to control.
The target of assay [17] is Ribosomal protein S6 kinase alpha-3 (Homo sapiens) (UniProt P51812). The experiment in a line: Inhibition of recombinant human Rsk2 (2 to end residues) assessed as residual activity at 10 uM using KKKNRTLSVA as substrate incubated for 40 mins in presence of [gamma33P]ATP by scintillation counting based radiometry assay relative to control.
Assay [18] has as its system RAF proto-oncogene serine/threonine-protein kinase (Homo sapiens), P04049 [Y340D,Y341D]. Put plainly: Inhibition of recombinant human C-Raf Y340D/Y341D mutant (306 to end residues) assessed as residual activity at 10 uM poly(Glu, Tyr) 4:1 as substrate incubated 40 mins in presence of [gamma-33ATP] by scintillation counting based radiometry assay relative to control.

Assay [19] relates to SNF-related serine/threonine-protein kinase (Homo sapiens), Q9NRH2 [UNDEFINED MUTATION]. The experiment in a line: Inhibition of human SNRK E97G/P116A mutant (65 to 409 residues) assessed as residual activity at 10 uM using KKLRRTLSFAEPG as substrate incubated for 40 mins in presence of [gamma33P]ATP by scintillation counting based radiometry assay relative to control.
Assay [20] concerns the target Muscle, skeletal receptor tyrosine-protein kinase (Homo sapiens) (UniProt O15146). Put plainly: Inhibition of recombinant human MUSK (530 to end residues) assessed as residual activity at 10 uM using myelin basic protein as substrate measured after 40 mins in presence of [gamma33P]ATP by scintillation counting based radiometry assay relative to control.
The next assay is filed under the species Mus musculus. Put plainly: Inhibition of recombinant full-length mouse PI3K p110/p85 H1047R mutant assessed as residual activity at 10 uM using phosphatidylinositol-4, 5-bisphosphate as substrate incubated for 40 mins in presence of [gamma33P]ATP by scintillation counting based radiometry assay relative to control.

This note sets out measurements from ChEMBL document CHEMBL4334471, “Discovery of 1,8-disubstituted-[1,2,3]triazolo[4,5-c]quinoline derivatives as a new class of Hippo signaling pathway inhibitors” (Bioorg Med Chem Lett, 2019).

Chain of Serine/threonine-protein kinase 10 (Homo sapiens) (O94804 whole entry, looked up, the tested form may be a part): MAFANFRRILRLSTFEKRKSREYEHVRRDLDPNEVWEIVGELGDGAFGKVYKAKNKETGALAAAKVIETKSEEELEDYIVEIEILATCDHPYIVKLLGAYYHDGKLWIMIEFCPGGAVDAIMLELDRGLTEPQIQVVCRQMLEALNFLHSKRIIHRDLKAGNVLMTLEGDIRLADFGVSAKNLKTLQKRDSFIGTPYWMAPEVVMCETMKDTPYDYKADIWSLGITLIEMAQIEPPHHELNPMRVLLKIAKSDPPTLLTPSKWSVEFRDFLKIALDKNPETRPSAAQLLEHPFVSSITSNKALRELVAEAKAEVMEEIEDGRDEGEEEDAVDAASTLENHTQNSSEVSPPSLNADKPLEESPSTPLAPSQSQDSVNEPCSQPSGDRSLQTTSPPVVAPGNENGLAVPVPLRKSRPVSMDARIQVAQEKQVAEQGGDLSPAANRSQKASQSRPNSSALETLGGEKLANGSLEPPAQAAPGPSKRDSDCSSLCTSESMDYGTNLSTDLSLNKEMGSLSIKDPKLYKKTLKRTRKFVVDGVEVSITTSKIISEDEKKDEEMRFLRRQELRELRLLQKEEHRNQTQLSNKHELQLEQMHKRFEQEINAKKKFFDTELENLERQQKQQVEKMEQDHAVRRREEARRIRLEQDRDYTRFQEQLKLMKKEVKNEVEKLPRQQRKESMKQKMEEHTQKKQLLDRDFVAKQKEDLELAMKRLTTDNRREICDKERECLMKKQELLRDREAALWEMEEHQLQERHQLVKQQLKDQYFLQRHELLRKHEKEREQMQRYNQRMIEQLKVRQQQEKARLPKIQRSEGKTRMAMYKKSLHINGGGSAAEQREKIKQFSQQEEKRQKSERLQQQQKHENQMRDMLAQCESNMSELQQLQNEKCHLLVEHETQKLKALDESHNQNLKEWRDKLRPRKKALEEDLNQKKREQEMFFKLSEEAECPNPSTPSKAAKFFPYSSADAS
Chain of Inhibitor of nuclear factor kappa-B kinase subunit beta (Homo sapiens) (O14920 whole entry): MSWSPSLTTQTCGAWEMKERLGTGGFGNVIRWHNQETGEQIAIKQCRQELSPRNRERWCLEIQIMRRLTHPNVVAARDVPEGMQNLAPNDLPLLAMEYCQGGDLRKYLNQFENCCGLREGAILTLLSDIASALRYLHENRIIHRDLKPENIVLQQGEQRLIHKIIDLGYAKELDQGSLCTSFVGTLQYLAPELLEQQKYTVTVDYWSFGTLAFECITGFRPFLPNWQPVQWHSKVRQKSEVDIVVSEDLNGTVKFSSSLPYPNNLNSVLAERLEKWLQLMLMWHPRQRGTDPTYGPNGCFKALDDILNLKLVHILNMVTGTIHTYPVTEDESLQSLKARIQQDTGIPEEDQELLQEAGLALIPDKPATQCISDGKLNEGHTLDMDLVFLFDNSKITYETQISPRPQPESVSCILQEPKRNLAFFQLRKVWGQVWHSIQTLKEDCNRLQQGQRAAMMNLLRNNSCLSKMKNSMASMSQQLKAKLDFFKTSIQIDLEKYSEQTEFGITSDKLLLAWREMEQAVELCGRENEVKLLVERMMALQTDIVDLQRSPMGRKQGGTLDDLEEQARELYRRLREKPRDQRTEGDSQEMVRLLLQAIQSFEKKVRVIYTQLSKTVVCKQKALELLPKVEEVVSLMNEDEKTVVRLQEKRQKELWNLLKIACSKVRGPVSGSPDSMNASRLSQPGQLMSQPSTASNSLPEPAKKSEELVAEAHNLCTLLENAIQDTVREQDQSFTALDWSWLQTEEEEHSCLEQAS
Chain of Activin receptor type-1-like (Homo sapiens) (P37023 whole entry): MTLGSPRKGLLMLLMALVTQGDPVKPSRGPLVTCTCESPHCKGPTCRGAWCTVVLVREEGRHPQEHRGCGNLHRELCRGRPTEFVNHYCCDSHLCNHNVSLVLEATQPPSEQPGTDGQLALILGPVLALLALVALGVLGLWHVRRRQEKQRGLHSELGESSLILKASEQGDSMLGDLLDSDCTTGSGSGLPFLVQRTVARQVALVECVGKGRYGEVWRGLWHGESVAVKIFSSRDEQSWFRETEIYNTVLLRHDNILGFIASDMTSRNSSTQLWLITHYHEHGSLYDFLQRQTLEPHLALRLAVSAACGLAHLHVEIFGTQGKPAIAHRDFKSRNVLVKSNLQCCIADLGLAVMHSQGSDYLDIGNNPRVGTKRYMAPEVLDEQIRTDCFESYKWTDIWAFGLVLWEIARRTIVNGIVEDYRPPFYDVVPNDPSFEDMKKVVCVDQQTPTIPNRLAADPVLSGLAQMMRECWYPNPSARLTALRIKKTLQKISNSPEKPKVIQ
Chain of Angiopoietin-1 receptor (Homo sapiens), Q02763 [Q939H,Q940H] (Q02763 whole entry Q939H/Q940H): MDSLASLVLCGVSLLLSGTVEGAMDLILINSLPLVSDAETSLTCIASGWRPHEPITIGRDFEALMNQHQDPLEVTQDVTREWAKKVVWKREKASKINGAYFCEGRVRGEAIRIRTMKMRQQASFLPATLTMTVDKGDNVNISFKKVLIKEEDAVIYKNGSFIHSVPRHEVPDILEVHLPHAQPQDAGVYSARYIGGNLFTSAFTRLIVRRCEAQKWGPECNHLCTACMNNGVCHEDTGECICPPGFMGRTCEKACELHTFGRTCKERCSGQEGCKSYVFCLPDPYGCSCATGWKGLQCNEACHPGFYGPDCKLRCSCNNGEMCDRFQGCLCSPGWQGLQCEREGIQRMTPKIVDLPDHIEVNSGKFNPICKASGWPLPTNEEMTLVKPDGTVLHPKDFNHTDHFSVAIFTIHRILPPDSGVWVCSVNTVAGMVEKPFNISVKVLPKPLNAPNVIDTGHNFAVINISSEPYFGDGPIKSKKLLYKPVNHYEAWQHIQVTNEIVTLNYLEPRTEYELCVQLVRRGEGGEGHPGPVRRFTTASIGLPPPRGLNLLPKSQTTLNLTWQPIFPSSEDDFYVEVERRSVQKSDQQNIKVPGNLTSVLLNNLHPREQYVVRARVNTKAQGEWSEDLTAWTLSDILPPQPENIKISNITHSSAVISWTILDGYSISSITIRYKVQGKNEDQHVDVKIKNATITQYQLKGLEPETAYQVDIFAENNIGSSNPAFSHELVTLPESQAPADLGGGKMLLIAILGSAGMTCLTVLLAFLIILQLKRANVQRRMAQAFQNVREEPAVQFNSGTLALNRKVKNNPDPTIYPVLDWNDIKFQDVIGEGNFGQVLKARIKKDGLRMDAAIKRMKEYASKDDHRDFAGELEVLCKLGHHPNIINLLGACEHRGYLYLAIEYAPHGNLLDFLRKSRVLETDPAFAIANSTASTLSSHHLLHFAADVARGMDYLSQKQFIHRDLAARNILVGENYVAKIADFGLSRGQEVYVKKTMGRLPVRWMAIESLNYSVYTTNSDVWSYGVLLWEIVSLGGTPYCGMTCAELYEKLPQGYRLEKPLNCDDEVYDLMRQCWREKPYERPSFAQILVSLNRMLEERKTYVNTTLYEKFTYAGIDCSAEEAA
Chain of Activin receptor type-2A (Homo sapiens) (P27037 whole entry): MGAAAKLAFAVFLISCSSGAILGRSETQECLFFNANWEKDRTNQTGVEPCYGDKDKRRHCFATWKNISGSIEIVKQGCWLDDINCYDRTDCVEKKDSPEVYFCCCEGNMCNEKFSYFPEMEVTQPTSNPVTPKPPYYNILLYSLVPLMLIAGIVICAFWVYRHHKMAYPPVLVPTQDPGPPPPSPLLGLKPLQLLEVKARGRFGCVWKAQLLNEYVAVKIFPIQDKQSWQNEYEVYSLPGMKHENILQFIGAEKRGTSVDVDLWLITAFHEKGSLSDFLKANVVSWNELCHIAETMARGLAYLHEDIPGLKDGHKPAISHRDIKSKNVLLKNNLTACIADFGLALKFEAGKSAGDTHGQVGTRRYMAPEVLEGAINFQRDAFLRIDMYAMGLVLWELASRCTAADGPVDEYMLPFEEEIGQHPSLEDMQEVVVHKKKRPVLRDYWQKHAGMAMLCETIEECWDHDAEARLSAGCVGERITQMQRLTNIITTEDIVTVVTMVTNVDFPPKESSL
Chain of CDC7/Cyclin B1 (Homo sapiens) (O00311 whole entry, looked up): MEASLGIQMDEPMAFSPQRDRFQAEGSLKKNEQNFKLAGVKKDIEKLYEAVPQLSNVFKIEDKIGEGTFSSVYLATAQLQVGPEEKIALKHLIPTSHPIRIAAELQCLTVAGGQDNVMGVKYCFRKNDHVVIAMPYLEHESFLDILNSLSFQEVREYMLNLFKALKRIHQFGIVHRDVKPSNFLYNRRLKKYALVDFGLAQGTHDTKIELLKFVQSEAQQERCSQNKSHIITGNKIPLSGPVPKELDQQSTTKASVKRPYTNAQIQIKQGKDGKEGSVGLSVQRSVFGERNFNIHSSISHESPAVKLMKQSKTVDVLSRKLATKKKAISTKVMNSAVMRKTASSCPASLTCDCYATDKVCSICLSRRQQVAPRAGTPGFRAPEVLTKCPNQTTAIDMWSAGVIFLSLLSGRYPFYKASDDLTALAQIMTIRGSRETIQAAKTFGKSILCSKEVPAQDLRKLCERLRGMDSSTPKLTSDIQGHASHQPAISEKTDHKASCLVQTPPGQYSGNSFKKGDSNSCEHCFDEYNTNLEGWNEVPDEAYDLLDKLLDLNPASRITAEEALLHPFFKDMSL
Chain of CDC7/Cyclin B1 (Homo sapiens) (P14635 whole entry, looked up): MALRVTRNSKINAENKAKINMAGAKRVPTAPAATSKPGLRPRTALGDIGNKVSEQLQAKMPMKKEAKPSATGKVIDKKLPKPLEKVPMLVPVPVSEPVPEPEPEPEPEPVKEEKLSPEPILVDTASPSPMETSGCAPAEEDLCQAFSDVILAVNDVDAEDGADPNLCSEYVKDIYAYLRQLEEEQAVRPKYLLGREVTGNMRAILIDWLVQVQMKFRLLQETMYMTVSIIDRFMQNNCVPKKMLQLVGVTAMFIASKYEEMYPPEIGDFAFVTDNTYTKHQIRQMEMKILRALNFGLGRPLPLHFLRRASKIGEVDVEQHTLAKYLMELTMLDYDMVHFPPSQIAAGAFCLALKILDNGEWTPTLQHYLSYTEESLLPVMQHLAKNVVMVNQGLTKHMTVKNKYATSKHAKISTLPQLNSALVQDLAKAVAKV

Take `C[C@@H](c1ccccc1)n1nnc2cnc3ccc(-c4cnc5[nH]ccc5c4)cc3c21`: the Activity was 96% in [1]; 78% in assay [2]; 115% in [3]; 21% in [4]; 63% in assay [5]; 50% in assay [6]. Further, the Activity in [7] came out at 8%; in assay [8], 67%; in assay [9], 73%; in assay [10], 52%; in [11], 101%; in [12], 69%. In addition, the Activity is 48% in assay [13]; 54% in assay [14]; 34% in assay [15]; 73 to 83% in assay [16]; 53% in assay [17]; 77% in assay [18]. Also, the Activity in [19] was 76%; in assay [20] it was 74%; in the assay listed under Mus musculus, 5%.
